System: primary rat microglia
Experiment: Inhibition of microglia activation (Aβ-peptide-activated primary rat microglia, MTS reduction)
Type: cell-based
Settings: 168 h, test of Example 307, metabolic activity via MTS reduction on cultivation day 7, relative to DMSO control

**Q.** For `Cc1ccc(-n2c(-c3ccccc3)nc3ccc(OCCCCCC(=O)OC(C)C)cc32)cc1` [Example 49, 6-[[1-(4-Methylphenyl)-2-phenyl-1H-benzimidazol-6-yl]oxy]hexanoic acid isopropyl ester], which IC50 is on record?
**A.** 750 nM
